Assay results: ChEMBL document CHEMBL1201862, “PubChem BioAssay data set” (2004)
Active and inactive are the calls of the source.

Experiments:
Streptococcus = test: Luminescence Microorganism-Based Dose Response Follow up to Identify Compounds Cytotoxic to Streptococcus. [Related pubchem assays: 1677 (Project Summary), 1915, 1914, 1902 (Retest at Dose), 1900 (Counter Screen), 1662 (Primary HTS)]; type: functional, organism-based
[1] = Counterscreen for IDE inhibitors: Luminescence-based cell-based high throughput dose response assay to identify compounds that are cytotoxic to HEK cells. [Related pubchem assays: 434962 (Primary screen (IDE inhibitors in singlicate)), 449730 (Counterscreen (Cytotoxicity in triplicate)), 435028 (Confirmation (IDE inhibitors in triplicate)) …; type: functional; conditions: HEK293
[2] = molecular target: T1, High affinity choline transporter 1 (Homo sapiens, UniProt Q9GZV3); test: human choline transporter blockers, potency – cell-based, 10-point CRC, membrane potential dye, dose response (AID 588401); type: functional;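 note: membrane potential dye fluorescence of choline-evoked depolarization via CHT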
T1 sequence (Q9GZV3 whole entry): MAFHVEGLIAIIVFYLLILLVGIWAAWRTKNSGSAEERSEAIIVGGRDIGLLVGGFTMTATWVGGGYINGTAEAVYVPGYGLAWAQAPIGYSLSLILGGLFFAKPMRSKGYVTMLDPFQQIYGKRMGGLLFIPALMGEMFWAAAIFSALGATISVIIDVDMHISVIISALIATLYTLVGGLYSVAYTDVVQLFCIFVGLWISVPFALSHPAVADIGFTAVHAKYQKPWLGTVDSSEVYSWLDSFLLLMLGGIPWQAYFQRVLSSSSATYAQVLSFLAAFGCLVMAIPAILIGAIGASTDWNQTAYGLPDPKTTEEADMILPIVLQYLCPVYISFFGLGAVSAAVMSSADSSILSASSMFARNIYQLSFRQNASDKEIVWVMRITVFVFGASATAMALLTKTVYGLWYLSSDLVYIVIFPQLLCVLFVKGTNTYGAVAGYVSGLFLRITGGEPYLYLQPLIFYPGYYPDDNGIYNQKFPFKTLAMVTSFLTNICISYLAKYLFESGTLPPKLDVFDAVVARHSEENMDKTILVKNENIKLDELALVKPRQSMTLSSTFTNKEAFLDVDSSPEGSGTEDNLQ

Insulin-degrading enzyme = molecular target: T2, Insulin-degrading enzyme (Homo sapiens, UniProt P14735); test: Dose Response: Fluorescence polarization-based cell-based high throughput dose response assay for inhibitors of insulin-degrading enzyme (IDE). [Related pubchem assays: 434962 (Primary screen (IDE inhibitors in singlicate)), 449730 (Counterscreen (Cytotoxicity in triplicate)), 435028 (Confirmation (IDE inhibitors in triplicate)), 434984 (Summary …; type: functional
T2 sequence (P14735 whole entry): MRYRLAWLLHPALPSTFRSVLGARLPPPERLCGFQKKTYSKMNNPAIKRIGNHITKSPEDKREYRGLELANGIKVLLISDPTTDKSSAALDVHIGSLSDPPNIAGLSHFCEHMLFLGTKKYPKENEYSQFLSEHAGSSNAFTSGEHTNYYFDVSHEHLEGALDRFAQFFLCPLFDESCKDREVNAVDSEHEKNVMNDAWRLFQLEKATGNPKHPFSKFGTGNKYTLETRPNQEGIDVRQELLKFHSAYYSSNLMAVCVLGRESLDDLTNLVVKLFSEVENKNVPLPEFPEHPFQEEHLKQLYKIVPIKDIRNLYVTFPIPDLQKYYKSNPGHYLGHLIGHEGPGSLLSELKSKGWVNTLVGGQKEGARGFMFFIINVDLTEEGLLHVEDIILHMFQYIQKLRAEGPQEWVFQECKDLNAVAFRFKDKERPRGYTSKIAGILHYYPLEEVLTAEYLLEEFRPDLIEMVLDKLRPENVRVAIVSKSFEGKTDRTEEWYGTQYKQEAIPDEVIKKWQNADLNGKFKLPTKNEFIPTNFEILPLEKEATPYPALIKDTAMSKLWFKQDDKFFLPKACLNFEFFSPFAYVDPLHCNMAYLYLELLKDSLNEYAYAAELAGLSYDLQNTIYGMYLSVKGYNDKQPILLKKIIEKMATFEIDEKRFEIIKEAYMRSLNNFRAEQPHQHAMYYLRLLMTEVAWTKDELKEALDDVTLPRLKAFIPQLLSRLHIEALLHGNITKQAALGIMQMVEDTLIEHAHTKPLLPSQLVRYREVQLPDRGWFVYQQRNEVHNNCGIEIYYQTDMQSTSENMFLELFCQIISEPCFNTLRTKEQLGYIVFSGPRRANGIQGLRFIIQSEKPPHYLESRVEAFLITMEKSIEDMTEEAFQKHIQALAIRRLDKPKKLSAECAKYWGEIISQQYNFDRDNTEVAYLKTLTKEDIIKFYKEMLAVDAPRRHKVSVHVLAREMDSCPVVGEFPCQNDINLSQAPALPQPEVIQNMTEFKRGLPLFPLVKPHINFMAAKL

[3] = molecular target: T1, High affinity choline transporter 1; test: human choline transporter blockers, potency – cell-based, 5-point CRC, membrane potential dye, dose response (AID 504840); type: functional
[4] = viability loss in HEK293 cells – cell-based, plate reader, cherry-picked samples, cytotoxicity control, dose response (AID 743446); type: functional
[5] = molecular target: Luciferin 4-monooxygenase (Photinus pyralis, UniProt P08659); test: inhibition of purified Photinus pyralis luciferase – biochemical, luminescence, dose response (AID 1891)
Luciferin 4-monooxygenase, sequence (P08659 whole entry): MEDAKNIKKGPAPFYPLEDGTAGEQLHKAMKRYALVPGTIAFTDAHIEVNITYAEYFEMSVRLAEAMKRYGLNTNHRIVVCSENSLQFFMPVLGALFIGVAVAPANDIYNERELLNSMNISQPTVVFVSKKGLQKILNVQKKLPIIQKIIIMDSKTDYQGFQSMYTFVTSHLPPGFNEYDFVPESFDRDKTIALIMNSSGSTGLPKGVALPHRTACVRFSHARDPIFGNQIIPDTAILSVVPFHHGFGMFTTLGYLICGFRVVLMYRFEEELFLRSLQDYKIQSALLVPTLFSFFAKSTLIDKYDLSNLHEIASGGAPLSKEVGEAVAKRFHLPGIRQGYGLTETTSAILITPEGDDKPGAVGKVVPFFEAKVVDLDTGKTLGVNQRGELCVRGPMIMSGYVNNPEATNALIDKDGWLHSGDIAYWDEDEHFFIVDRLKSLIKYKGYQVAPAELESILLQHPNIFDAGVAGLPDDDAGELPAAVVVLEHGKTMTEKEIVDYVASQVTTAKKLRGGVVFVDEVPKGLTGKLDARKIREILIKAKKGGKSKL

[6] = luciferase reporter signal suppression in cells – H4 neuroglioma cells, luminescence, dose response (AID 1990); type: functional, cell-based
[7] = Luminescence-based counterscreen assay for KLF5 inhibitors: dose response cell-based high throughput screening assay to identify cytotoxic compounds using the IEC-6 intestinal epithelial cell line. [Related pubchem assays: 1700 (Primary screen.), 1834 (Confirmation screen.), 1858 (Summary AID.), 1905 (Counterscreen.)]; type: functional
[8] = alpha-synuclein stem-loop luciferase translation blockers – H4 neuroglioma cells, luminescence, confirmation (AID 1988); type: functional, cell-based
[9] = A549 cell cytotoxicity, dose response, cytotoxicity control, plate reader, cherry-pick, antagonist series (AID 743412); type: functional, cell-based
[10] = toxicity toward HepG2 liver cells – cell-based, plate reader, cherry-pick, antagonist series, cytotoxicity control, dose response (AID 743416); type: functional
[11] = blockers of bursicon-stimulated LGR2 cAMP reporter – cell-based, HEK293, CRE-luciferase reporter, cherry pick, set 2, dose response (AID 743343); type: functional;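 note: transfected cells were stimulated with diluted bursicon conditioned medium after compound addition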
[12] = Luminescence Cell-Based Dose Confirmation HTS to Identify Inhibitors of Platelet Dense Granule Release. [Related pubchem assays: 1663 (Primary HTS), 1678 (Summary of Project)]; type: functional
[13] = blockade of melanocortin 4 receptor signaling – cell-based, plate reader, cherry pick, counter-screen for LGR2 antagonist project, dose response (AID 743444); type: functional;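 note: transfected HEK 293 cells stimulated with alpha-MSH peptide; potency of inhibitors of the alpha-MSH evoked signal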
[14] = Luminescence Cell-Based Dose Response HTS to Identify Inhibitors of 5'UTR Stem-Loop Driven Prion Protein mRNA Translation in H4 Neuroglioblastoma Cells. [Related pubchem assays: 1827 (Project Summary), 1813 (Primary HTS)]; type: functional
[15] = viability of uninfected HEp-2 cells – cell-based, HTS, cytotoxicity control for RSV inhibitor project, dose response (AID 2410); type: functional; conditions: human respiratory syncytial virus
[16] = molecular target: Melanin-concentrating hormone receptor 1 (Homo sapiens, UniProt Q99705); test: Fluorescence-based counterscreen for antagonists of the G-protein coupled receptor 7 (GPR7): cell-based high throughput dose response assay to identify antagonists of the melanin-concentrating hormone receptor 1 (MCHR1).; type: functional
Melanin-concentrating hormone receptor 1, sequence (Q99705 whole entry): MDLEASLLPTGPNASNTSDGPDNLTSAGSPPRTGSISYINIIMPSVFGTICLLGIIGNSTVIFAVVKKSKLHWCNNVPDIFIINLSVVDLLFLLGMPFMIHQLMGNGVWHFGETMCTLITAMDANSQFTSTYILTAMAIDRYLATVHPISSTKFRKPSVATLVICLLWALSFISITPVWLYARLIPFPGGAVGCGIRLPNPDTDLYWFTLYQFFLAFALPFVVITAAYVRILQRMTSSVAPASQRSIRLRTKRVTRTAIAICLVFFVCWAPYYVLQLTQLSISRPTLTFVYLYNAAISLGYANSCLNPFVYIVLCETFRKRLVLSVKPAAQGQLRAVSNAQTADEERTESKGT

[17] = molecular target: T3, Neuropeptides B/W receptor type 1 (Homo sapiens, UniProt P48145); test: Fluorescence-based dose response cell-based high throughput screening assay to identify antagonists of the G-protein coupled receptor 7 (GPR7). [Related pubchem assays: 1952 (Screening assay (GPR7 antagonists).), 1880 (Summary AID.)]; type: functional
T3 sequence (P48145 whole entry): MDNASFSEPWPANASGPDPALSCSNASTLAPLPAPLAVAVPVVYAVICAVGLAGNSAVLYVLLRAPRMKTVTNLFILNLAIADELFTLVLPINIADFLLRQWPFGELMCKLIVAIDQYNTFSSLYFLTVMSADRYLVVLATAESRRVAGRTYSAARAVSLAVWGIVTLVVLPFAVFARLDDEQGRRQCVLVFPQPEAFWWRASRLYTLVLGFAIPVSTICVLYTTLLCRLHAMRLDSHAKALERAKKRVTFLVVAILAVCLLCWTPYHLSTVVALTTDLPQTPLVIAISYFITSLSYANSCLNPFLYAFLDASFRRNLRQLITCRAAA

[18] = molecular target: T4, Corticotropin-releasing factor receptor 2/Corticotropin-releasing factor-binding protein (Homo sapiens, UniProt P24387+Q13324); test: activators of CRF receptor 2 with binding protein – uHTS hits, confirmation (AID 602473); type: functional; conditions: read-out: EC50_Mean
T4 sequence (Q13324 whole entry): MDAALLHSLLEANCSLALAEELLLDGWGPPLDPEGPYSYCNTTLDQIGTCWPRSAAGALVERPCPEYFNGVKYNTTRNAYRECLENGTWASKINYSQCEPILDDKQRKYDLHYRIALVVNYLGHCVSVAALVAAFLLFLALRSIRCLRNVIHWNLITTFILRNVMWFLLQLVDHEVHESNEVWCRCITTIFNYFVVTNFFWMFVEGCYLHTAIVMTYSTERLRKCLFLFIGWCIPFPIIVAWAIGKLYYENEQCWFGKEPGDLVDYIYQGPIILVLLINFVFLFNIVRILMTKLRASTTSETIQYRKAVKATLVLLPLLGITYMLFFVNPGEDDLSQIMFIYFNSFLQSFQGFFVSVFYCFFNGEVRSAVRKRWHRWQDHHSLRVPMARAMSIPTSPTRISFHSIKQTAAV
T4 sequence (P24387 whole entry): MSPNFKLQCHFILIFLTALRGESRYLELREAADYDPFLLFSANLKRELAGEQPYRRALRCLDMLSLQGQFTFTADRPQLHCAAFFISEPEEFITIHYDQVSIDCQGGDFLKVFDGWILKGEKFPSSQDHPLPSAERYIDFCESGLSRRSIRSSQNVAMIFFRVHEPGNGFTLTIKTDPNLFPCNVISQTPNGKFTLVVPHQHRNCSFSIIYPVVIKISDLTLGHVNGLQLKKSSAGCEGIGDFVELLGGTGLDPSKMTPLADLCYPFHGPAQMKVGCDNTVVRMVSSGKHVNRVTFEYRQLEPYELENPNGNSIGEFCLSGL

## N#Cc1ccc(C(=O)n2c3ccccc3c3ccccc32)cc1
Streptococcus
  EC50: > 500 µM (not active)

## CC(C)(C)NC(=O)NC(=O)CN1CCN(c2cccc(Cl)c2)CC1
[1]
  IC50: 19.3 µM (not active)
[2]
  IC50: 3.16 µM (active)
Insulin-degrading enzyme
  IC50: > 55.9 µM (not active)
[3]
  IC50: 8.64 µM (active)

## CCc1ccn2cc(-c3ccc4c(c3)OCO4)nc2c1
[4]
  AC50: > 52 µM (inactive)
[5]
  EC50: 2.16 µM (active)
[6]
  EC50: 0.239 µM (active)
[7]
  IC50: 21.5 µM (not active)
[8]
  EC50: 0.158 µM (active)
[9]
  AC50: > 52 µM (inactive)
[10]
  AC50: > 52 µM (inactive)
[11]
  AC50: 1.22 µM (active)
[12]
  EC50: 8.85 µM (active)
[13]
  AC50: 1.5 µM (active)
[14]
  EC50: < 0.1 µM (active)

## COc1ccc(-c2oc(=O)c3cc(OC)c(OC)cc3c2/C=C/c2cccc([N+](=O)[O-])c2)cc1
cells
  IC50: 14.8 µM (active)
[15]
  CC50: 38 µM (active)

## N=c1c(C(=O)NCCc2ccccc2)cc2c(=O)n3ccccc3nc2n1CCCN1CCOCC1
[16]
  IC50: > 43.8 µM (not active)
[17]
  IC50: > 43.8 µM (not active)

## Cc1cccc(/N=C/c2[nH]c3ccc(Br)c(Cl)c3c2O)c1
[1]
  IC50: 13.1 µM (not active)
[18]
  EC50: 0.46 µM (active)
Insulin-degrading enzyme
  IC50: 38.2 µM (not active)
